Test results from US10315976B2, “Organic compounds” (Givaudan SA, priority 2013, dated 2019).

Tests used:
[1] = Chemical stability (thermal, alkaline and acidic media); type: physicochemical
[2] = findings of SCCS; cited from earlier work

SMILES	Stability in alkaline media [1]	Thermal stability [1]	Degradation in alkaline conditions ([1]; above pH 10, ambient temperature)	Degradation at elevated temperatures ([1]; above pH 10 or below about pH 4, elevated temperatures, compared with ambient)	Degradation in acidic conditions ([1]; below about pH 4, ambient temperature)	Allergenicity [2]
CC(=CCCC=O)CCCC(C)(C)O [(I), 5,9-dimethyl-9-hydroxy-decen-4-al]	unstable in alkaline media	thermally unstable	rapidly degraded	degradation proceeds even more rapidly	rapidly degraded	–
CC(C)(O)CCCC1=CCC(C=O)CC1 (stereo not drawn) [cyclohexal, 4(4-hydroxy-4-methylpentyl) 3-cyclohexene carboxaldehyde]	–	–	–	–	–	allergenic concerns
